Results as given in patent EP4624457A1, “I[…] DERIVATIVES, I[…] NEURODEGENERATIVE DISEASES” (Centre National de la Recherche Scientifique, priority 2024, dated 2025).

What was measured:
[1] = biological target: α4β2 nAChR (Homo sapiens, UniProt P17787+P43681); conditions: antagonistic activity, TEVC; value (95% CI); read-out: nAChR subtype (nM; 95% CI) α4β2 (human); cited from earlier work
[2] = biological target: T1, human α7 nAChR subtype (Homo sapiens, UniProt P36544); conditions: antagonistic activity, TEVC; value (95% CI); cited from earlier work
T1 construct: expressed in transfected cells; host or cells: Xenopus laevis oocytes injected with mRNA
T1 sequence (P36544 23-502): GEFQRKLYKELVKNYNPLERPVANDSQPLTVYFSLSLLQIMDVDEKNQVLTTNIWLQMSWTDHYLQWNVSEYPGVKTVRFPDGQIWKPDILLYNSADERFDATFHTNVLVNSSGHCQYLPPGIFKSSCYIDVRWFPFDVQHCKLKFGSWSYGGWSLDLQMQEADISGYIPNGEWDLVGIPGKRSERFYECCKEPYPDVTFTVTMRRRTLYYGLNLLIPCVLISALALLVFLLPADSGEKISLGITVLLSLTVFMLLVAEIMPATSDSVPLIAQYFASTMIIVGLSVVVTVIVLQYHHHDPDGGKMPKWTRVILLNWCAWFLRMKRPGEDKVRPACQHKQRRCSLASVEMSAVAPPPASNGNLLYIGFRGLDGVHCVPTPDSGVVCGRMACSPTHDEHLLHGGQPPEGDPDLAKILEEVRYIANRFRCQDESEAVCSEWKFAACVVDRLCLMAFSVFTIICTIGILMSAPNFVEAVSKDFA

[3] = biological target: muscle (α1)2βγδ nAChR subtype (Torpedo marmorata, UniProt P02711+Q6S3H8+Q6S3H9); conditions: antagonistic activity, TEVC; value (95% CI); read-out: nAChR subtype (nM; 95% CI) α12β1γδ (Torpedo); cited from earlier work
muscle (α1)2βγδ nAChR subtype, sequence (P02711 25-461): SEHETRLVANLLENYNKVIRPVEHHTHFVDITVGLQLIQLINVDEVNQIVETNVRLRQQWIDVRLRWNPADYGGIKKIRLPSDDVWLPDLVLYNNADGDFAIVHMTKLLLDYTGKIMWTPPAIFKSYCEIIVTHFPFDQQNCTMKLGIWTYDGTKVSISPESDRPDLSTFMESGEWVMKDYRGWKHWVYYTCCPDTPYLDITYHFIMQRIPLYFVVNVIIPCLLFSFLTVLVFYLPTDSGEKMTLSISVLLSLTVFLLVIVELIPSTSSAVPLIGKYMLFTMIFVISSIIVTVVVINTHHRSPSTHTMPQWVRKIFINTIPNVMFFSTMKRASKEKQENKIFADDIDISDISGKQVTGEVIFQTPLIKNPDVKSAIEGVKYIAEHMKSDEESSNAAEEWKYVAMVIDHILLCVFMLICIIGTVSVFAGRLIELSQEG
muscle (α1)2βγδ nAChR subtype, sequence (Q6S3H9 entry or part of it): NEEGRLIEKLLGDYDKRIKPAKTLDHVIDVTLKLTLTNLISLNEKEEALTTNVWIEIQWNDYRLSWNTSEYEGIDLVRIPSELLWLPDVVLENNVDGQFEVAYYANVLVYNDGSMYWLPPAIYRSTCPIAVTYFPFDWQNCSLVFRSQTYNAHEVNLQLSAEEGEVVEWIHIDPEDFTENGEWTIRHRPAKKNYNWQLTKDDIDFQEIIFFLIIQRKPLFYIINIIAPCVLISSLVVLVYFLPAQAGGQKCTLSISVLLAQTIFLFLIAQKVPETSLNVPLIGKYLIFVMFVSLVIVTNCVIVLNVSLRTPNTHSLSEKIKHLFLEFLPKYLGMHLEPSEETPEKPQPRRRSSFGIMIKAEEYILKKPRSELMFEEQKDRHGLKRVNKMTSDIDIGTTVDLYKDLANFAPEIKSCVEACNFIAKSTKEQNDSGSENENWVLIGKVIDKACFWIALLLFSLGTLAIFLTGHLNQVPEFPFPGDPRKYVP
muscle (α1)2βγδ nAChR subtype, sequence (Q6S3H8 entry or part of it): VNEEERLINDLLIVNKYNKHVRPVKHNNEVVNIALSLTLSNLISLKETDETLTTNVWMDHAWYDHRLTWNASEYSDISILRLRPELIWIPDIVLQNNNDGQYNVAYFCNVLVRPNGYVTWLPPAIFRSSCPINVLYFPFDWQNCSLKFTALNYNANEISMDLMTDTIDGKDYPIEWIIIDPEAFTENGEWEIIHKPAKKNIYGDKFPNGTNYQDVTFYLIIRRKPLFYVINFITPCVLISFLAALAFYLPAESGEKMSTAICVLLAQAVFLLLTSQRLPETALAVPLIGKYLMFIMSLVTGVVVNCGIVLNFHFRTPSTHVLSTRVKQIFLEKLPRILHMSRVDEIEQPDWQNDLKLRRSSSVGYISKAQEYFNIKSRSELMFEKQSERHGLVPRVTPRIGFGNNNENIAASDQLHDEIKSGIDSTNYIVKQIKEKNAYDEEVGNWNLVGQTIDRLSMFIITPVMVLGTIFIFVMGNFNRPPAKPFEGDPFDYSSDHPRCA
muscle (α1)2βγδ nAChR subtype, sequence (Q6S3I0 entry or part of it, further chain): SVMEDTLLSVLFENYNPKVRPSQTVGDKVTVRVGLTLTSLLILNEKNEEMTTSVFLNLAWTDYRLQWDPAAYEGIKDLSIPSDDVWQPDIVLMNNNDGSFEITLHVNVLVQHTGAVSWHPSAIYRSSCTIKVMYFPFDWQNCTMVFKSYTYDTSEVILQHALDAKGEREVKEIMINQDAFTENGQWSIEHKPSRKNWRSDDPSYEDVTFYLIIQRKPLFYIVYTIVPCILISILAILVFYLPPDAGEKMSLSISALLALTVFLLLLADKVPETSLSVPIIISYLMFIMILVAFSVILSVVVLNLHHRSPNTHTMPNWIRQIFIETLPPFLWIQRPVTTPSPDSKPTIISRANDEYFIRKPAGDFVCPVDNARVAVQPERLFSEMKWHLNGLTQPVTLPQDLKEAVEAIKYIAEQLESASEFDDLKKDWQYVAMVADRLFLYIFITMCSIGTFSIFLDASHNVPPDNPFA

[4] = biological target: T1, human α7 nAChR subtype; assay: Two-electrode voltage clamp electrophysiology on Xenopus laevis oocytes expressing the α7 nAChR; format: cell-based
Description: The emerging cyclic imines toxins (CiTXs) of global distribution across coastal environments that are produced by dinoflagellates move fast up the human food chain through shellfish. The CiTX family includes 44 compounds: 7 gymnodimines (A-E, 12-methylgymnodimine and 16-desmethyl gymnodimine D), 16 spirolides (A-D, G-I, 13-desmethyl spirolide-C, 27-Hydroxy-13-desmethyl spirolide-C, 13,19-didesmethyl spirolide-C, 20-hydroxy-13,19-didesmethyl spirolide- C, 27-hydroxy-13,19-spirolide-C, 27-Oxo-13,19-didesmethyl spirolide-C, 13-desmethyl spirolide-D, 20-hydroxy-13,19-didesmethyl spirolide-D and 20-methyl spirolide-G), 8 pinnatoxins (A-H), 3 pteriatoxins (A-C), 6 prorocentrolides (A-B, 4- hydroxyprorocentrolide, 9,51-dihydro prorocentrolide, 30-sulfate prorocentrolide and 14-O-acetyl-4-hydroxyprorocentrolide), 1 spiroprorocentrimine, 2 portimines (A and B), and 1 kabirimine, (Aráoz et al. (2020) Cyclic imine toxins survey in coastal european shellfish samples: Bioaccumulation and mode of action of 28-O-palmitoyl ester of pinnatoxin-G. First report of portimine-A bioaccumulation. Harmful Algae, 98 [1]). The spiroimine moiety is the major feature characterizing cyclic imine toxins. The exception to this rule is prorocentrolides in which a hexahydroisoquinoline group replaces the spiroimine motif, (Torigoe et al. (1988) Prorocentrolide, a toxic nitrogenous macrocycle from a marine dinoflagellate, Prorocentrum-lima. Journal of the American Chemical Society, 110:7876-7877 [2]). Portimines display a 5-membered cyclic imine ring; gymnodimines, prorocentrolides, spiroprorocentrimines and kabirimine present a 6-membered imine ring, while spirolides, pinnatoxins and pteriatoxins display a 7-membered imine ring. Cyclic imine toxins are fast acting neurotoxins that, when administered intraperitoneally or by gavage at lethal doses, kill mice by respiratory arrest within minutes following blockade of neuromuscular nicotinic acetylcholine receptors (nAChR). The mode of action of several cyclic imines on nAChRs has been characterized, namely: gymnodimine-A, 13- desmethyl spirolide- C, 13,19-didesmethyl spirolide-C, 20-methyl spirolide-G, pinnatoxin-A, pinnatoxin-G, prorocentrolide-A and portimine, (Lamoise et al. (2017) Physico-chemical and functional characterization of portimine purified from Vulcanodinium rugosum strain IFR-VRU-01. In "Marine and Fresh-Water Harmful Algae". Proceedings of the 17th International Conference on Harmful Algae (Proença, L.A.O. and Hallegraeff, G. eds) pp. 126-129 ISSHA and IOC/UNESCO, Florianapolis; Molgó et al. (2017) Cyclic imine toxins from dinoflagellates: a growing family of potent antagonists of the nicotinic acetylcholine receptors. Journal of Neurochemistry, 142:41-51 [4]). They are potent antagonists of muscular and neuronal nicotinic acetylcholine receptors with pinnatoxin-A displaying picomolar affinities towards the α7 nicotinic acetylcholine receptor subtype (Aráoz et al. (2011) Total synthesis of pinnatoxins A and G and revision of the mode of action of pinnatoxin A. Journal of the American Chemical Society 133(27):10499-10511 [5]). In contrast, prorocentrolide and portimine show micromolar affinities towards the α7 nicotinic acetylcholine receptor subtype (Lamoise et al. (2017), Stivala et al. (2015) Synthesis and biology of cyclic imine toxins, an emerging class of potent, globally distributed marine toxins. Natural Product Reports, 32(3):411-435 [6]) (Table1). Table 1. Antagonistic activity of CiTX (Two-Electrodes Voltage Clamp electrophysiology).
• Figure 1 represents the chemical structure of ingrilimine according to compound (Illa) formula. • Figure 2 represents the cytotoxic activity of ingrilimine. A2780 ovarian and HT29 colorectal carcinoma cells were grown in RPMI 1640 supplemented with 10% fetal calf serum (FCS) and 1% glutamine. […]

[5] = system: P338 leukemia cell line; conditions: mouse P338 leukemia cell line; cited from earlier work
[6] = system: 3T3, L929, 4T1 and Caco-2 cells; conditions: normal cell lines 3T3 and L929, tumor cell line 4T1, Caco-2 cells; cited from earlier work
[7] = system: cancer cell lines; conditions: literature (Tang et al. 2023; Fribley et al. 2019); cited from earlier work

α4β2 nAChR, sequence (P43681 29-627): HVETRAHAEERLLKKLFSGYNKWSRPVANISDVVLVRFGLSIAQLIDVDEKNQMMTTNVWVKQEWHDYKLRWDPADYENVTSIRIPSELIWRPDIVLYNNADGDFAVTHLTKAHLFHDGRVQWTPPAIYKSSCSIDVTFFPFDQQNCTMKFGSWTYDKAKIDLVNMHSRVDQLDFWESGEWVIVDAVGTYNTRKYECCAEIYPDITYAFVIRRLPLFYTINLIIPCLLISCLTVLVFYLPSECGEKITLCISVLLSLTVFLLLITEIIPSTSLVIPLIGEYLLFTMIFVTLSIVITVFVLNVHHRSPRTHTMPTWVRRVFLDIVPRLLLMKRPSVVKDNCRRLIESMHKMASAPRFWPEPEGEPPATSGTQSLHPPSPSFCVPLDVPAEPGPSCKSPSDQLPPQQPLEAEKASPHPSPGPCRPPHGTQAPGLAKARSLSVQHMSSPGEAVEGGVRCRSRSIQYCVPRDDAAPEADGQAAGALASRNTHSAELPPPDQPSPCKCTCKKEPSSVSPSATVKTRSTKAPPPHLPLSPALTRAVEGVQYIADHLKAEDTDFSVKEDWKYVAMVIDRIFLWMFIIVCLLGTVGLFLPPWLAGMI
α4β2 nAChR, sequence (P17787 26-502): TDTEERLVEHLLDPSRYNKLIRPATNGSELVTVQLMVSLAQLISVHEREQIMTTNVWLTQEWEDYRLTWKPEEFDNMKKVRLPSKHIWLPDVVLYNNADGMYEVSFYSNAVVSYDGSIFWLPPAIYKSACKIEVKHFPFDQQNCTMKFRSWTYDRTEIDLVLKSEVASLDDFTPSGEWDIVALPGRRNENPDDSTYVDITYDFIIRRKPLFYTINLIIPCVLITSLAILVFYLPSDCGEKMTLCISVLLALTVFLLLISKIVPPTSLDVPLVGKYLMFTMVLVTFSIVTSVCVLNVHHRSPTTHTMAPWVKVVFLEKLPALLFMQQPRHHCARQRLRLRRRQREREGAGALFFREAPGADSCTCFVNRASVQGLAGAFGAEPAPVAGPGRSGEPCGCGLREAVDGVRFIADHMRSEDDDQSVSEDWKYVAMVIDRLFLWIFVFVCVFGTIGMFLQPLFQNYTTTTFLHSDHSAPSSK

Molecule	IC50 [1]	IC50 [2]	IC50 [3]	also measured
20-methyl spirolide-G	2.1 nM	0.48 nM	0.36 nM	–
28-O-palmitoyl ester of pinnatoxin-G [Palmitate PnTX-G]	–	–	0.97 nM	–
C=C1CCCC2=NCC(C)C(C)CC23CCC(C2C=C(C)C(=O)O2)=C(C)C3/C=C(\C)C(O)CC2CCC3(CCC4(OC(CCC4O)C1)O3)O2 (stereo not shown) [13,19-didesmethyl spirolide-C]	6.26 nM	0.25 nM	0.2 nM	–
C=C1CCCC2=NCC(C)C(C)CC23CCC(C2C=C(C)C(=O)O2)=C(C)C3/C=C(/C)C(O)CC2CCC3(CCC4(OC(CCC4(C)O)C1)O3)O2 (stereo not shown) [13-desmethyl spirolide-C]	3.9 nM	0.18 nM	0.51 nM	–
C=C1CCCC2=NC[C@H](C)[C@@H](C)C[C@@]23CCC(C(=O)O)=C[C@@H]3[C@@H]2O[C@]3(C[C@H]4CCC[C@@]5(CC[C@@]6(O[C@@H](CC[C@@]6(C)O)C1)O5)O4)C[C@@H](C)[C@@H](O)[C@H]2O3 [Pinnatoxine-A]	30.4 nM	0.107 nM	5.53 nM	antagonistic activity against human α7 nAChR, times more potent than towards muscle-type (α1)2β1γδ nAChR ([4]; selectivity α7 vs muscle-type): 50 times; antagonistic activity against human α7 nAChR, times more potent than against the human neuronal α4β2 nAChR subtype ([4]; selectivity α7 vs α4β2): ~ 300 times
C=CC1=C[C@@H]2[C@@H]3O[C@]4(C[C@H]5CCC[C@@]6(CC[C@@]7(O[C@@H](CC[C@@]7(C)O)CC(=C)CCCC7=NC[C@H](C)[C@@H](C)C[C@@]72CC1)O6)O5)C[C@@H](C)[C@@H](O)[C@H]3O4 [Pinnatoxine-G]	4.9 nM	5.06 nM	3.82 nM	–
C=C1CCCC2OC(CC3=CC4/C(C)=C/CC(C)CC(/C=C(\C)C(O)C5CC(O)C(O)C(CCC(O)/C=C/C(C)=C/CCC6=NCCC(C3)C64C)O5)OC(=O)CC3CC(O)C(O3)C(O)C1)CC(O)C2O (stereo not shown) [Prorocentrolide]	–	1660 nM	186 nM	–
C=C1CCCC2=NC[C@H](C)[C@@H](C)C[C@@]23CCC([C@@H]2CCC(=O)O2)=C[C@@H]3[C@@H]2O[C@@]3(C[C@@H](C)C[C@H]2O3)C[C@@H]2O[C@]3(CC[C@@]4(O[C@@H](CC[C@@]4(C)O)C1)O3)C[C@H](C)[C@@H]2O [pinnatoxin-F]	–	–	–	IC50 [5]: > 1000 nM
Gymnodimine-A	0.9 nM	–	2.8 nM	cytotoxic, concentration region [6]: micromolar region
portimine B	–	–	–	cytotoxic activities, order of magnitude [7]: ~10^-7 M
